Source: US20230141603A1, “BENZODIAZEPINE DERIVATIVES AS GABA A GAMMA1 PAM” (Hoffmann-La Roche Inc., priority 2021, published 2023)

These compounds were tested against T1, h-GABAA α5β2γ1 (Homo sapiens, UniProt P31644+Q8N1C3) (assay: Radioligand binding assay, [3H]RO7239181 competition, HEK293F membranes).
T1 construct: expressed in transfected cells; host or cells: HEK293F cells (ThermoFisher R79007), membranes
T1 sequence (P31644 32-462): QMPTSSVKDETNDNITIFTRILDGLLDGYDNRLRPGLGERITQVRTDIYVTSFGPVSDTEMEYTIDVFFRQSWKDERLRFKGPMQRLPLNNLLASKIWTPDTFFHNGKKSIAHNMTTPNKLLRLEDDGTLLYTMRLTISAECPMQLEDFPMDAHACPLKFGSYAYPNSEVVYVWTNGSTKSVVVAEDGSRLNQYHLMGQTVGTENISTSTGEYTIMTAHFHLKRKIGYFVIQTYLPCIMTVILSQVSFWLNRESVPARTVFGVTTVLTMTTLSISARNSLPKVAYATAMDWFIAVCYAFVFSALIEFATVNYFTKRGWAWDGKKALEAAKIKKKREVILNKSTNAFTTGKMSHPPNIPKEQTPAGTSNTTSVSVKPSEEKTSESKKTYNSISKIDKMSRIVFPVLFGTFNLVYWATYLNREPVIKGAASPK
T1 sequence (P47870 25-512 partner limits assumed): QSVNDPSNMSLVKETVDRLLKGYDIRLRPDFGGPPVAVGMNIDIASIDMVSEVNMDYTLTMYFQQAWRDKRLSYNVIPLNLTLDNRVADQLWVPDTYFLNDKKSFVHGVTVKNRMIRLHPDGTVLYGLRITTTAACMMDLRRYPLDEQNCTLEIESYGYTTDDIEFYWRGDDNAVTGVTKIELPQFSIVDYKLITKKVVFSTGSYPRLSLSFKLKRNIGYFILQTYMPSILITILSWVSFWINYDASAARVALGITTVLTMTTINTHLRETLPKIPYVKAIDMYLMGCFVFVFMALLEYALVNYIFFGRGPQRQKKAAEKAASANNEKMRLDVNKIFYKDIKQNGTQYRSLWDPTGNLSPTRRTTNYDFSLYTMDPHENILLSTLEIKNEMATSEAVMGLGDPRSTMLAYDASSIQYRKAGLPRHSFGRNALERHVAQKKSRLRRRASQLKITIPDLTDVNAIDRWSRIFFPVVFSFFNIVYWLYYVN
T1 sequence (Q8N1C3 36-465): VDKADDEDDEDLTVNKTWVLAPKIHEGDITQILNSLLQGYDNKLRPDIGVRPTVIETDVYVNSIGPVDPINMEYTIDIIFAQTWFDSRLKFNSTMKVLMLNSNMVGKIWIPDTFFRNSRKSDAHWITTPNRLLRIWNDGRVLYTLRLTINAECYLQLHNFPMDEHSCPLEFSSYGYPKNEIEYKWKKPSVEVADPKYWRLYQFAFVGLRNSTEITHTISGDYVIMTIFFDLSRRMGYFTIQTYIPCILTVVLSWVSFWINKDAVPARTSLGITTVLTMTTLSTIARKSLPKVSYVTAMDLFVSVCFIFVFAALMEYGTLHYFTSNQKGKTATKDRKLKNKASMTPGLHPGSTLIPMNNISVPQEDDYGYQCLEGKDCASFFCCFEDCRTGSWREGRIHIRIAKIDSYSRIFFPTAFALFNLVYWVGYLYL
Method: The affinity of compounds at GABAA γ1 subunit-containing receptors was measured by competition for [^3H]RO7239181 (67.3 Ci/mmol; Roche) binding to membranes from HEK293F cells (ThermoFisher R79007) expressing human (transiently transfected) receptors of composition […], α2β2γ1, α1β2γ1. For better protein expression of the α2 subunit-containing receptors, the 28 amino acid long signal peptide (Met1 to Ala28) of the human GABAA α2 subunit was substituted by the 31 amino acid long signal peptide (Met1 to Ser31) of human GABAA α5 subunit.
Harvested pellets from HEK293F cells expressing the different GABAA receptor subtypes were resuspended in Mannitol Buffer pH 7.2-7.4 (Mannitol 0.29M, Triethylamine 10 mM, Acetic acid 10 mM, EDTA 1 mM plus protease inhibitors (20 tablets Complete, Roche Diagnostics Cat. No. 05 056 489 001 per liter)), washed two times and then resuspended at 1:10 to 1:15 dilution in the same buffer. Cell disruption was performed by stirring the suspension in a Parr vessel #4637 at 435 psi for 15 minutes, and then the suspensions were centrifuged at 1000×g for 15 minutes at 4° C. (Beckman Avanti J-HC; rotor JS-4.2). The supernatant (S1) was transferred in a 21 Schott flask and the pellet (P1) was resuspended with Mannitol Buffer up to 175 ml. The resuspended pellet was transferred into a 250 ml Corning centrifugal beaker and centrifuged at 1500×g for 10 minutes at 4° C. (Beckman Avanti J-HC; rotor JS-4.2). The supernatant (S1) was then transferred in the 21 Schott flask and the pellet was discarded. The supernatants (S1) were centrifuged in 500 ml Beckman polypropylene centrifugal beaker at 15′000×g for 30 minutes at 4° C. (Beckman Avanti J-20 XP; rotor JLA-10.500). The pellet (P2) was resuspended with Mannitol Buffer 1:1 and frozen at −80° C. The supernatant (S2) was centrifuged in 100 ml Beckman polypropylene centrifugal tubes at 48000×g for 50 minutes at 4° C. (Beckman Avanti J-20 XP; rotor JA-18). The supernatant (S3) was discarded and the pellet (P3) was resuspended with 1:1 Mannitol Buffer. The P2 and P3 protein concentration was determined with the BIORAD Standard assay method with bovine serum albumin as standard and measured on the NANO-Drop 1000. The membrane suspension was aliquots (500 μl per tube) and stored at −80° C. until required. Membrane homogenates were resuspended and polytronised (Polytron PT1200E Kinematica AG) in Potassium Phosphate 10 mM, KCl 100 mM binding buffer at pH 7.4 to a final assay concentration determined with a previous experiment.
Radioligand binding assays were carried out in a volume of 200 μL (96-well plates) which contained 100 μL of cell membranes, [^3H]RO7239181 at a concentration of 1.5 nM (α5β2γ1) or 20-30 nM (α1β2γ1, α2β2γ1) and the test compound in the range of [0.3-10000]×10^−9 M. Nonspecific binding was defined by 10×10^−6 (α5β2γ1) and 30×10^−6 M RO7235136 and typically represented less than 5% (α5β2γ1) and less than 20% (α1β2γ1, α2β2γ1) of the total binding. Assays were incubated to equilibrium for 1 hour at 4° C. and then, membranes were filtered onto unifilter (96-well white microplate with bonded GF/C filters preincubated 20-50 minutes in 0.3% Polyethylenimine) with a Filtermate 196 harvester (Packard BioScience) and washed 4 times with cold Potassium Phosphate 10 mM pH 7.4, KCl 100 mM binding buffer. After drying, filter-retained radioactivity was detected by liquid scintillation counting. Ki values were calculated using Excel-Fit (Microsoft) and are the means of two determinations.

Row | Compound | Ki [nM]
1 | Fc1cccc(F)c1C1=NCc2nncn2-c2ccc(C(F)F)c(Cl)c21 [Example 23, 7-chloro-8-(difluoromethyl)-6-(2,6-difluorophenyl)-4H-[1,2,4]triazolo[4,3-a][1,4]benzodiazepine] | 5.8
2 | Cc1nnc2n1-c1ccc(Br)c(Cl)c1C(c1ncccc1F)=NC2 [Example 24, 8-bromo-7-chloro-6-(3-fluoro-2-pyridyl)-1-methyl-4H-[1,2,4]triazolo[4,3-a][1,4]benzodiazepine] | 3.5
3 | Cc1nnc2n1-c1ccc(C(F)F)c(Cl)c1C(c1c(F)cccc1F)=NC2 [Example 25, 7-chloro-8-(difluoromethyl)-6-(2,6-difluorophenyl)-1-methyl-4H-[1,2,4]triazolo[4,3-a][1,4]benzodiazepine] | 4.4
4 | O=c1[nH]nc2n1-c1ccc(Br)c(Cl)c1C(c1ccccc1F)=NC2 [Example 26, 8-bromo-7-chloro-6-(2-fluorophenyl)-2,4-dihydro-[1,2,4]triazolo[4,3-a][1,4]benzodiazepin-1-one] | 2.3
5 | Fc1ccccc1C1=NCc2nnc(-c3cccnn3)n2-c2ccc(C(F)(F)F)c(Cl)c21 [Example 27, 7-chloro-6-(2-fluorophenyl)-1-pyridazin-3-yl-8-(trifluoromethyl)-4H-[1,2,4]triazolo[4,3-a][1,4]benzodiazepine] | 6.3
6 | Cn1cc(-c2nnc3n2-c2ccc(Cl)c(Cl)c2C(c2c(F)cccc2F)=NC3)cn1 [Example 28, 7,8-dichloro-6-(2,6-difluorophenyl)-1-(1-methylpyrazol-4-yl)-4H-[1,2,4]triazolo[4,3-a][1,4]benzodiazepine] | 1.4
7 | Fc1cccnc1C1=NCc2nncn2-c2ccc(Br)c(Cl)c21 [Example 29, 8-bromo-7-chloro-6-(3-fluoro-2-pyridyl)-4H-[1,2,4]triazolo[4,3-a][1,4]benzodiazepine] | 7.2
8 | OCc1nnc2n1-c1ccc(Br)c(Cl)c1C(c1c(F)cccc1F)=NC2 [Example 33, [8-bromo-7-chloro-6-(2,6-difluorophenyl)-4H-[1,2,4]triazolo[4,3-a][1,4]benzodiazepin-1-yl]methanol] | 1.5
9 | Fc1cccc(F)c1C1=NCc2nncn2-c2ccc(I)c(Cl)c21 [Example 34, 7-chloro-6-(2,6-difluorophenyl)-8-iodo-4H-[1,2,4]triazolo[4,3-a][1,4]benzodiazepine] | 0.3
10 | Cl.NCc1nnc2n1-c1ccc(Br)c(Cl)c1C(c1c(F)cccc1F)=NC2 [Example 36, [8-bromo-7-chloro-6-(2,6-difluorophenyl)-4H-[1,2,4]triazolo[4,3-a][1,4]benzodiazepin-1-yl]methanamine hydrochloride] | 1.8
11 | Fc1cccc(F)c1C1=NCc2nncn2-c2ccc(C(F)(F)F)c(Cl)c21 [Example 37, 7-chloro-6-(2,6-difluorophenyl)-8-(trifluoromethyl)-4H-[1,2,4]triazolo[4,3-a][1,4]benzodiazepine] | 2.1
12 | Fc1cccc(F)c1C1=NCc2nnc(-c3cccnn3)n2-c2ccc(C(F)(F)F)c(Cl)c21 [Example 38, 7-chloro-6-(2,6-difluorophenyl)-1-pyridazin-3-yl-8-(trifluoromethyl)-4H-[1,2,4]triazolo[4,3-a][1,4]benzodiazepine] | 1.9
13 | Fc1cccc(F)c1C1=NCc2nnc(-c3cccnn3)n2-c2ccc(I)c(Cl)c21 [Example 39, 7-chloro-6-(2,6-difluorophenyl)-8-iodo-1-pyridazin-3-yl-4H-[1,2,4]triazolo[4,3-a][1,4]benzodiazepine] | 0.8
14 | Cc1nnc2n1-c1ccc(C(F)(F)F)c(Cl)c1C(c1c(F)cccc1F)=NC2 [Example 40, 7-chloro-6-(2,6-difluorophenyl)-1-methyl-8-(trifluoromethyl)-4H-[1,2,4]triazolo[4,3-a][1,4]benzodiazepine] | 1.9
15 | Cc1nnc2n1-c1ccc(I)c(Cl)c1C(c1c(F)cccc1F)=NC2 [Example 41, 7-chloro-6-(2,6-difluorophenyl)-8-iodo-1-methyl-4H-[1,2,4]triazolo[4,3-a][1,4]benzodiazepine] | 0.8
